Molecular target: Cyclin-dependent kinase 2 (Homo sapiens, UniProt P24941)
Test: Inhibition of Cyclin-dependent kinase 2 (CDK2)

`CN1CCC(c2c(O)cc(O)c3c(=O)cc(Sc4ccccc4Cl)oc23)C(O)C1` (stereo unspecified) was tested, and the IC50 was 2.1 µM.
